The source of these data is patent US20260334439A1, “BCAT2 INHIBITORS” (Agios Pharmaceuticals, Inc., priority 2023, published 2026).

This assay concerns the target T1, BCAT2 (Homo sapiens, UniProt O15382).
T1 sequence (O15382 28-392): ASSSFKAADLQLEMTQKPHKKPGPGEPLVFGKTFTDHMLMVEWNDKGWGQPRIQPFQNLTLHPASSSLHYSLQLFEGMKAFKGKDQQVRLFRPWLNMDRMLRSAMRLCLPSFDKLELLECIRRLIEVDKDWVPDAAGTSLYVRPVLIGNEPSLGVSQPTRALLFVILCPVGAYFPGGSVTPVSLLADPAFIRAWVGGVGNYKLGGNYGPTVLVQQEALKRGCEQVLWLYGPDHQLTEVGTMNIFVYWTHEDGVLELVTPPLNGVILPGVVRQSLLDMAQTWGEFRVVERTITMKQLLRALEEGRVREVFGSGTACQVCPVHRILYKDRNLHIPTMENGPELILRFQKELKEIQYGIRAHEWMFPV
The experiment in a line: BCAT2 in vitro enzyme inhibition assay (hBCAT2, glutamate dehydrogenase/diaphorase/resazurin coupled fluorescence read). Format: biochemical. To be noted: hBCAT2, 1 h preincubation at 25° C., one hour reaction; average where tested multiple times. In outline:
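Coupled GDH/diaphorase/resazurin fluorescence (Ex 540/Em 590) read after 1 h reaction at 25 °C, SDS-stopped; enzyme (0.33 μg/mL in mix) first preincubated 1 h with compound, 10-point 3-fold series from 100 μM final, Tris pH 8.0 buffer with NaCl, BSA; technical duplicates, averaged across tests.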
A general note: Alamar Blue is a resazurin reagent that responds to reducing activity.

What is called IC50 is the point on the concentration scale where inhibition reaches its midpoint. A higher IC50 goes with lower potency. As for `O=C(N[C@H]1CCC[C@@H](n2c(-c3ccccc3F)nc3cnc(-c4nc[nH]n4)cc32)C1)c1ccc(F)cc1F` [Example 75, 2,4-difluoro-N-((1S,3R)-3-(2-(2-fluorophenyl)-6-(1H-1,2,4-triazol-3-yl)-1H-imidazo[4,5-c]pyridin-1-yl)cyclohexyl)benzamide], the IC50 is under 100 nM. In the case of `CO[C@H]1C[C@H](NC(=O)c2cc(Cl)ccc2F)C[C@H](n2c(-c3ccccc3OCCO)nc3cnc(-c4ncco4)cc32)C1` [Example 124, 5-chloro-2-fluoro-N-((1R,3S,5S)-3-(2-(2-(2-hydroxyethoxy)phenyl)-6-(oxazol-2-yl)-1H-imidazo[4,5-c]pyridin-1-yl)-5-methoxycyclohexyl)benzamide], the IC50 is under 100 nM. Next, `CC(C)(Cc1nc2cnc(-c3nc[nH]n3)cc2n1[C@@H]1CCC[C@H](NC(=O)c2cc(Cl)ccn2)C1)C(N)=O` [Example 44, N-((1S,3R)-3-(2-(3-amino-2,2-dimethyl-3-oxopropyl)-6-(1H-1,2,4-triazol-3-yl)-1H-imidazo[4,5-c]pyridin-1-yl)cyclohexyl)-4-chloropicolinamide]: over 1000 nM; `CN1CC(NC(=O)c2cc(F)ccc2F)CC(n2c(-c3ncccc3F)nc3cnc(-c4nc[nH]n4)cc32)C1` (stereo not drawn) [Example 146, 2,5-difluoro-N-(5-(2-(3-fluoropyridin-2-yl)-6-(1H-1,2,4-triazol-3-yl)-1H-imidazo[4,5-c]pyridin-1-yl)-1-methylpiperidin-3-yl)benzamide]: 100 to 500 nM; `O=C(N[C@H]1CCC[C@@H](n2c(-c3ncccc3OC(F)F)nc3cnc(-c4nc[nH]n4)cc32)C1)c1cc(Cl)ccc1OC(F)F` [compound 66]: under 100 nM.

Turning to `CC(C)(C#N)Cc1nc2cnc(-c3nc[nH]n3)cc2n1[C@@H]1CCC[C@H](NC(=O)c2cc(Cl)ccn2)C1` [Example 43, 4-chloro-N-((1S,3R)-3-(2-(2-cyano-2-methylpropyl)-6-(1H-1,2,4-triazol-3-yl)-1H-imidazo[4,5-c]pyridin-1-yl)cyclohexyl)picolinamide], the IC50 is 500 to 1000 nM. Next, `N#Cc1ccccc1-c1nc2cnc(-c3nc[nH]n3)cc2n1[C@@H]1CCC[C@H](NC(=O)c2cc(F)ccn2)C1` [Example 46, N-((1S,3R)-3-(2-(2-cyanophenyl)-6-(1H-1,2,4-triazol-3-yl)-1H-imidazo[4,5-c]pyridin-1-yl)cyclohexyl)-4-fluoropicolinamide]: under 100 nM; `CO[C@H]1C[C@H](NC(=O)c2cc(F)ccc2F)C[C@H](n2c(-c3ccccc3OCCO)nc3cnc(-c4ncco4)cc32)C1` [Example 123, 2,5-difluoro-N-((1R,3S,5S)-3-(2-(2-(2-hydroxyethoxy)phenyl)-6-(oxazol-2-yl)-1H-imidazo[4,5-c]pyridin-1-yl)-5-methoxycyclohexyl)benzamide]: under 100 nM. The figure for `O=C(N[C@H]1CCC[C@@H](n2c(-c3ccccc3OC(F)F)nc3cnc(-c4nc[nH]n4)cc32)C1)c1cc(Cl)ccn1` [compound 52] is under 100 nM. Next, `CN1C[C@H](NC(=O)c2cc(Cl)ccn2)C[C@H](n2c(-c3ccccc3OCCO)nc3cnc(-n4nccn4)cc32)C1` [Example 157, 4-chloro-N-((3R,5S)-5-(2-(2-(2-hydroxyethoxy)phenyl)-6-(2H-1,2,3-triazol-2-yl)-1H-imidazo[4,5-c]pyridin-1-yl)-1-methylpiperidin-3-yl)picolinamide]: under 100 nM; `O=C(N[C@H]1CCC[C@@H](n2c(-c3ncccc3OC(F)F)nc3cnc(-c4nc[nH]n4)cc32)C1)c1cc(F)ccn1` [compound 63]: under 100 nM; `O=C(N[C@H]1CCC[C@@H](n2c(-c3ncccc3F)nc3ccc(-c4nc[nH]n4)cc32)[C@@H]1O)c1cc(F)ccc1F` [Example 222, 2,5-difluoro-N-((1S,2R,3R)-3-(2-(3-fluoropyridin-2-yl)-6-(1H-1,2,4-triazol-3-yl)-1H-benzo[d]imidazol-1-yl)-2-hydroxycyclo-hexyl)benzamide]: 100 to 500 nM.
